Source: the NIST ThermoML archive (doi:10.1016/j.jct.2010.10.025)

Assay: xn = mol fraction of the nth substance listed
Conditions: 101 kPa, Liquid; for speed of sound: Sing-around technique in a fixed-path interferometer; for mass density: Vibrating tube method

CCCCCCCCCO [nonan-1-ol] + Cc1ccc(O)cc1
x2 = 0
Conditions | mass density [kg/m3] | speed of sound [m/s]
293.15 K | 827.704 | 1380.7
313.15 K | 813.877 | 1314

CCCCCCCCCO [nonan-1-ol] + Cc1ccccc1O
Conditions | mass density, 293.15 K [kg/m3] | mass density, 313.15 K [kg/m3] | speed of sound, 293.15 K [m/s] | speed of sound, 313.15 K [m/s]
x2 = 0 | 827.704 | 813.877 | 1380.7 | 1314
x2 = 0.0747 | 838.281 | 824.298 | 1388 | 1320
x2 = 0.1411 | 848.105 | 833.982 | 1393.4 | 1325.4
x2 = 0.2087 | 858.578 | 844.312 | 1398.9 | 1330.9
x2 = 0.2614 | 867.121 | 852.733 | 1403.3 | 1335.5
x2 = 0.326 | 878.085 | 863.535 | 1408.9 | 1341.4
x2 = 0.4013 | 891.616 | 876.862 | 1416.1 | 1348.8
x2 = 0.4562 | 902.048 | 887.133 | 1422 | 1354.7
x2 = 0.5303 | 916.987 | 901.834 | 1430.5 | 1363.3
x2 = 0.5829 | 928.291 | 912.952 | 1437.3 | 1370
x2 = 0.645 | 942.416 | 926.834 | 1446.2 | 1378.7
x2 = 0.7171 | 960.1 | 944.211 | 1457.8 | 1389.8
x2 = 0.784 | 977.81 | 961.595 | 1470 | 1401.7
x2 = 0.8566 | 998.699 | 982.094 | 1485.3 | 1416.7
x2 = 0.9397 | 1024.88 | 1007.76 | 1505.2 | 1436.5

CCCCCCCCCO [nonan-1-ol] + COc1ccccc1
Conditions | mass density, 293.15 K [kg/m3] | mass density, 313.15 K [kg/m3] | speed of sound, 293.15 K [m/s] | speed of sound, 313.15 K [m/s]
x2 = 0 | 827.704 | 813.877 | 1380.7 | 1314
x2 = 0.0691 | 834.714 | 820.629 | 1379.8 | 1312
x2 = 0.1265 | 840.852 | 826.539 | 1379.1 | 1310.9
x2 = 0.2023 | 849.439 | 834.809 | 1378.5 | 1309.8
x2 = 0.2701 | 857.605 | 842.665 | 1378.4 | 1309
x2 = 0.335 | 865.942 | 850.682 | 1378.5 | 1308.5
x2 = 0.405 | 875.488 | 859.873 | 1379 | 1308.3
x2 = 0.4753 | 885.766 | 869.775 | 1380.2 | 1308.6
x2 = 0.5348 | 895.034 | 878.714 | 1381.6 | 1309.2
x2 = 0.6025 | 906.314 | 889.609 | 1384.2 | 1311.1
x2 = 0.6657 | 917.614 | 900.551 | 1387.5 | 1313.4
x2 = 0.7399 | 931.942 | 914.464 | 1392.7 | 1317.5
x2 = 0.8198 | 948.831 | 930.915 | 1400.4 | 1323.4
x2 = 0.8791 | 962.443 | 944.199 | 1407.4 | 1329
x2 = 0.9468 | 979.271 | 960.651 | 1417.5 | 1337.5

COc1ccccc1 [anisole] + CCCCCCCCCO
x1 = 1
Conditions | mass density [kg/m3] | speed of sound [m/s]
293.15 K | 993.845 | 1427.3
313.15 K | 974.966 | 1346.7

CCCCCCCCCO [nonan-1-ol] + Cc1cccc(O)c1
Conditions | mass density, 293.15 K [kg/m3] | mass density, 313.15 K [kg/m3] | speed of sound, 293.15 K [m/s] | speed of sound, 313.15 K [m/s]
x2 = 0 | 827.704 | 813.877 | 1380.7 | 1314
x2 = 0.0696 | 837.032 | 823.074 | 1386.7 | 1319.2
x2 = 0.1336 | 845.992 | 831.904 | 1390.8 | 1323.6
x2 = 0.2038 | 856.282 | 842.048 | 1395.6 | 1328.8
x2 = 0.2679 | 866.185 | 851.815 | 1400.4 | 1333.8
x2 = 0.3231 | 875.133 | 860.644 | 1404.9 | 1338.4
x2 = 0.3971 | 887.768 | 873.113 | 1411.3 | 1345
x2 = 0.4653 | 900.156 | 885.348 | 1417.5 | 1351.6
x2 = 0.5405 | 914.757 | 899.778 | 1425.3 | 1359.6
x2 = 0.6082 | 928.851 | 913.714 | 1432.9 | 1367.1
x2 = 0.6786 | 944.571 | 929.281 | 1441.8 | 1376.3
x2 = 0.7459 | 960.755 | 945.321 | 1451.1 | 1386.2
x2 = 0.8167 | 979.083 | 963.512 | 1461.2 | 1397.7
x2 = 0.8892 | 999.352 | 983.643 | 1474.3 | 1410.7
x2 = 0.9459 | 1016.5 | 1000.7 | 1485 | 1422.1

Cc1ccccc1O [2-methylphenol] + CCCCCCCCCO
x1 = 1
Conditions | mass density [kg/m3] | speed of sound [m/s]
293.15 K | 1045.69 | 1521.8
313.15 K | 1028.14 | 1453.3

Cc1cccc(O)c1 [3-methylphenol] + CCCCCCCCCO
x1 = 1
Conditions | mass density [kg/m3] | speed of sound [m/s]
293.15 K | 1033.99 | 1496.8
313.15 K | 1018.06 | 1434.2

Cc1ccc(O)cc1 [4-methylphenol] + CCCCCCCCCO
Conditions | mass density, 293.15 K [kg/m3] | mass density, 313.15 K [kg/m3] | speed of sound, 293.15 K [m/s] | speed of sound, 313.15 K [m/s]
x1 = 0.0723 | 837.798 | 823.756 | 1387.3 | 1319.8
x1 = 0.1353 | 846.887 | 832.662 | 1392.7 | 1324.9
x1 = 0.2032 | 856.995 | 842.572 | 1398.2 | 1330.5
x1 = 0.2637 | 866.395 | 851.785 | 1403.2 | 1335.7
x1 = 0.3492 | 880.334 | 865.479 | 1410.3 | 1343
x1 = 0.4122 | 891.234 | 876.214 | 1415.5 | 1348.6
x1 = 0.4898 | 905.461 | 890.246 | 1422.7 | 1356.1
x1 = 0.5492 | 917.111 | 901.771 | 1428.7 | 1362.2
x1 = 0.6143 | 930.635 | 915.184 | 1436 | 1369.8
x1 = 0.6735 | 943.741 | 928.201 | 1443.4 | 1377.4
x1 = 0.7455 | 960.902 | 945.287 | 1453.2 | 1388.3
x1 = 0.8163 | 979.164 | 963.518 | 1464.5 | 1400
x1 = 0.8789 | 996.577 | 980.938 | 1476 | 1412.3
x1 = 0.9362 | 1013.65 | 998.054 | 1487.5 | 1424.4
x1 = 1 | 1033.99 | 1018.47 | 1502.2 | 1439.6
